Results taken from US12145913B2, “Inhibition of Olig2 activity” (Curtana Pharmaceuticals, Inc., priority 2016, dated 2024).

What follows are compounds tested on GBM8 human glioblastoma cells (assay: GBM8 viability assay (Cell Titer Glo)). Details: 72 h, Table 1, 3 days incubation, luminescence.
Type: cell-based
Description: Cell culture medium was prepared from a NSA proliferation kit (Neurocult) and NeuroCult supplements (Stemcell Tech Cat. #05751) and treated with 20 μL of 10 μg/mL rh EGF, 10 μL of 10 μg/mL rh bFGF and 10 μL of 0.2% Heparin. In this medium, human glioblastoma cells were cultured in ultra-low attachment tissue culture flasks until 1×10^6 cells ml was achieved (GBM4 and GBM8 are distinct neurosphere cell cultures derived from these human patient tissues). GBM4 and GBM8 cells were dissociated and 10 mL of media containing 4000 human glioblastoma cells per 90 μL were transferred to an ultra-low binding 96-well plate and incubated at 37° C. overnight. On the following day, 10 μL of a 1% DMSO solution of test compound in assay medium was added to wells containing the cell suspension and the mixture incubated at 37° C. for 3 days. At this time, the plate was removed from the incubator and allowed to reach room temperature. After about 30 minutes, 50 μL of Cell Titer Glo solution was added to each well and the plate shaken for 1 minute at low speed. After 10 minutes luminescence was recorded using a Tecan Safire2 reader.
Reduction in luminescence compared to DMSO only control wells was used to determine the percentage inhibition of cell growth. IC50s were calculated using the % inhibition of luminescence for serial dilutions of compounds fitted to a 4-parameter fit within the Prism (San Diego) curve fitting program. Tables 1 (compounds 3-188) and 2 (compounds 190-212) show the GBM4 IC50 and GBM8 IC50 for compounds described herein.
Compound `Cc1cc(NCCCN)nc(NC(=O)Nc2ccc3occc3c2)n1` [Compound 83, 1-(4-((3-aminopropyl)amino)-6-methylpyrimidin-2-yl)-3-(benzofuran-5-yl)urea] has an IC50 of under 500 nM. For `Cc1cc(NCCN)nc(NC(=O)Nc2ccc3ccncc3c2)n1` [Compound 116, 1-(4-((2-aminoethyl)amino)-6-methylpyrimidin-2-yl)-3-(isoquinolin-7-yl)urea], the IC50 was 500 to 5000 nM. For `Cc1cc(NCCCNS(C)(=O)=O)nc(NC(=O)Nc2ccc3ccccc3c2)n1` [Compound 37, N-(3-((6-methyl-2-(3-(naphthalen-2-yl)ureido)pyrimidin-4-yl)amino)propyl)methanesulfonamide], the IC50 was under 500 nM. `Cc1cc(NCCN(C)C)nc(NC(=O)Nc2ccc3ncccc3c2)n1` [Compound 106, 1-(4-((2-(dimethylamino)ethyl)amino)-6-methylpyrimidin-2-yl)-3-(quinolin-6-yl)urea] showed an IC50 of 500 to 5000 nM. Work on `CNCCCNc1cc(C)nc(NC(=O)Nc2ccc3cnccc3c2)n1` [Compound 64, 1-(isoquinolin-6-yl)-3-(4-methyl-6-((3-(methylamino)propyl)amino)pyrimidin-2-yl)urea] yielded an IC50 of under 500 nM. In the case of `Cc1cc(NCCNS(C)(=O)=O)nc(NC(=O)Nc2ccc3cnccc3c2)n1` [Compound 75, N-(2-((2-(3-(isoquinolin-6-yl)ureido)-6-methylpyrimidin-4-yl)amino)ethyl)methanesulfonamide], the IC50 is reported as under 500 nM. Work on `CC(=O)NCCCNc1cc(C)nc(NC(=O)Nc2ccc3ccccc3c2)n1` [Compound 34, N-(3-((6-methyl-2-(3-(naphthalen-2-yl)ureido)pyrimidin-4-yl)amino)propyl)acetamide] yielded an IC50 of under 500 nM. With `Cc1cc(NCCCN(C)C)nc(NC(=O)Nc2ccc(OC(F)(F)F)c(C)c2)n1` [Compound 153, 1-(4-((3-(dimethylamino)propyl)amino)-6-methylpyrimidin-2-yl)-3-(3-methyl-4-(trifluoromethoxy)phenyl)urea] the IC50 was under 500 nM. `Cc1cc(NCCCN)nc(NC(=O)Nc2ccc3cnccc3c2)n1` [Compound 53, 1-(4-((3-aminopropyl)amino)-6-methylpyrimidin-2-yl)-3-(isoquinolin-6-yl)urea] was tested, and the IC50 was 500 to 5000 nM. Work on `Cc1cc(NCCN)nc(NC(=O)Nc2ccc3ccccc3c2)n1` [Compound 5, 1-(4-((2-aminoethyl)amino)-6-methylpyrimidin-2-yl)-3-(naphthalen-2-yl)urea] yielded an IC50 of under 500 nM. Work on `Cc1cc(NCCCN)nc(NC(=O)Nc2ccc(C(=O)c3ccccc3)cc2)n1` [Compound 155, 1-(4-((3-aminopropyl)amino)-6-methylpyrimidin-2-yl)-3-(4-benzoylphenyl)urea] yielded an IC50 of under 500 nM. For `CNc1cc(C)nc(NC(=O)Nc2ccc(OC(F)(F)F)cc2)n1` [Compound 144, 1-(4-methyl-6-(methylamino)pyrimidin-2-yl)-3-(4-(trifluoromethoxy)phenyl)urea], the IC50 was under 500 nM. With `CNC(=O)CNc1cc(C)nc(NC(=O)Nc2ccc3cnccc3c2)n1` [Compound 58] the IC50 was under 500 nM. Work on `Cc1cc(NCC2CCCNC2)nc(NC(=O)Nc2ccc3ccccc3c2)n1` (stereo not drawn) [Compound 32, 1-(4-methyl-6-((piperidin-3-ylmethyl)amino)pyrimidin-2-yl)-3-(naphthalen-2-yl)urea] yielded an IC50 of under 500 nM. `COCCNc1cc(C)nc(NC(=O)Nc2ccc3cnccc3c2)n1` [Compound 57] gave an IC50 of under 500 nM. Compound `CNCCNc1cc(C)nc(NC(=O)Nc2ccc3ccccc3c2)n1` [Compound 30, 1-(4-methyl-6-((2-(methylamino)ethyl)amino)pyrimidin-2-yl)-3-(naphthalen-2-yl)urea] has an IC50 of under 500 nM. For `Cc1cc(NCCNS(C)(=O)=O)nc(NC(=O)Nc2ccc3ccccc3n2)n1` [Compound 102, N-(2-((6-methyl-2-(3-(quinolin-2-yl)ureido)pyrimidin-4-yl)amino)ethyl)methanesulfonamide], the IC50 was 500 to 5000 nM. Work on `Cc1cc(NCCOCCN(C)C)nc(NC(=O)Nc2ccc3ccccc3c2)n1` [Compound 28, 1-(4-((2-(2-(dimethylamino)ethoxy)ethyl)amino)-6-methylpyrimidin-2-yl)-3-(naphthalen-2-yl)urea] yielded an IC50 of under 500 nM. Compound `Cc1cc(NCCO)nc(NC(=O)Nc2ccc3cnccc3c2)n1` [Compound 60, 1-(4-((2-hydroxyethyl)amino)-6-methylpyrimidin-2-yl)-3-(isoquinolin-6-yl)urea] has an IC50 of under 500 nM. `CC(=O)NCCCNc1cc(C)nc(NC(=O)Nc2cc3ccccc3cn2)n1` [Compound 92, N-(3-((2-(3-(isoquinolin-3-yl)ureido)-6-methylpyrimidin-4-yl)amino)propyl)acetamide] showed an IC50 of 500 to 5000 nM. Work on `CCNc1cc(C)nc(NC(=O)Nc2ccc(-c3ccccc3)cc2)n1` [Compound 126, 1-([1,1′-biphenyl]-4-yl)-3-(4-(ethylamino)-6-methylpyrimidin-2-yl)urea] yielded an IC50 of under 500 nM. `CNc1cc(C)nc(NC(=O)Nc2ccc3ccccc3c2)n1` [Compound 20] showed an IC50 of under 500 nM. `CN(C)CCCNc1ccnc(NC(=O)Nc2ccc(OC(F)(F)F)cc2)n1` [Compound 163, 1-(4-((3-(dimethylamino)propyl)amino)pyrimidin-2-yl)-3-(4-(trifluoromethoxy)phenyl)urea] gave an IC50 of 500 to 5000 nM. `Cc1cc(NO)nc(NC(=O)Nc2ccc3cnccc3c2)n1` [Compound 62, 1-(4-(hydroxyamino)-6-methylpyrimidin-2-yl)-3-(isoquinolin-6-yl)urea] gave an IC50 of under 500 nM. For `Cc1cc(NCCNS(C)(=O)=O)nc(NC(=O)Nc2ccc(Cl)c(Cl)c2)n1` [Compound 123, N-(2-((2-(3-(3,4-dichlorophenyl)ureido)-6-methylpyrimidin-4-yl)amino)ethyl)methanesulfonamide], the IC50 was under 500 nM. With `Cc1cc(NCCNS(C)(=O)=O)nc(NC(=O)Nc2ccc3occc3c2)n1` [Compound 86, N-(2-((2-(3-(benzofuran-5-yl)ureido)-6-methylpyrimidin-4-yl)amino)ethyl)methanesulfonamide] the IC50 was under 500 nM. `O=C(Nc1ccc(Cl)c(Cl)c1)Nc1nccc(NO)n1` [Compound 158, 1-(3,4-dichlorophenyl)-3-(4-(hydroxyamino)pyrimidin-2-yl)urea] gave an IC50 of 500 to 5000 nM. `CCNc1cc(C)nc(NC(=O)Nc2ccc3cnccc3c2)n1` [Compound 54] was tested, and the IC50 was under 500 nM. `CC(=O)NCCCNc1cc(C)nc(NC(=O)Nc2ccc3occc3c2)n1` [Compound 85, N-(3-((2-(3-(benzofuran-5-yl)ureido)-6-methylpyrimidin-4-yl)amino)propyl)acetamide] gave an IC50 of under 500 nM. `Cc1cc(NCCc2ccccn2)nc(NC(=O)Nc2ccc3ccccc3c2)n1` [Compound 15] gave an IC50 of 5000 to 30000 nM. `Cc1cc(NCCCN(C)C)nc(NC(=O)Nc2ccc(OC(F)(F)F)c(Cl)c2)n1` [Compound 149, 1-(3-chloro-4-(trifluoromethoxy)phenyl)-3-(4-((3-(dimethylamino)propyl)amino)-6-methylpyrimidin-2-yl)urea] was tested, and the IC50 was under 500 nM. `Cc1cc(NCC2CCCN(C)C2)nc(NC(=O)Nc2ccc3ccccc3c2)n1` (stereo not drawn) [Compound 11] showed an IC50 of 500 to 5000 nM. For `Cc1cc(N(C)C)nc(NC(=O)Nc2ccc3ccccc3c2)n1` [Compound 21], the IC50 was 500 to 5000 nM. Work on `Cc1cc(NCCCc2ccccn2)nc(NC(=O)Nc2ccc3ccccc3c2)n1` [Compound 16] yielded an IC50 of under 500 nM. With `Cc1cc(NCCCN)nc(NC(=O)Nc2ccc3ccncc3c2)n1` [Compound 117, 1-(4-((3-aminopropyl)amino)-6-methylpyrimidin-2-yl)-3-(isoquinolin-7-yl)urea] the IC50 was 500 to 5000 nM.

Same assay, conditions: 72 h, Table 2, 3 days incubation, luminescence
`CN(C)CCCNc1cc(C2CC2)nc(NC(=O)Nc2ccc(Cl)c(Cl)c2)n1` [Compound 204, 1-(4-cyclopropyl-6-((3-(dimethylamino)propyl)amino)-pyrimidin-2-yl)-3-(3,4-dichlorophenyl)urea] showed an IC50 of 500 to 5000 nM. Compound `CNCCCNc1cc(C(C)C)nc(NC(=O)Nc2ccc3ccccc3c2)n1` [Compound 192, 1-(4-isopropyl-6-((3-(methylamino)propyl)amino)pyrimidin-2-yl)-3-(naphthalen-2-yl)urea] has an IC50 of 500 to 5000 nM. For `CN(C)CCCNc1cc(C2CC2)nc(NC(=O)Nc2ccc(OC(F)(F)F)cc2)n1` [Compound 209, 1-(4-cyclopropyl-6-((3-(dimethylamino)propyl)amino)-pyrimidin-2-yl)-3-(4-(trifluoromethoxy)phenyl)urea], the IC50 was 500 to 5000 nM. Compound `CC(C)c1cc(NCCCN(C)C)nc(NC(=O)Nc2ccc(OC(F)(F)F)cc2)n1` [Compound 194, 1-(4-((3-(dimethylamino)propyl)amino)-6-isopropylpyrimidin-2-yl)-3-(4-(trifluoromethoxy)phenyl)urea] has an IC50 of 500 to 5000 nM. In the case of `CNCCCNc1cc(C2CC2)nc(NC(=O)Nc2ccc(Cl)c(Cl)c2)n1` [Compound 206, 1-(4-cyclopropyl-6-((3-(methylamino)propyl)amino)pyrimidin-2-yl)-3-(3,4-dichlorophenyl)urea], the IC50 is reported as 5000 to 30000 nM. `CC(C)c1cc(NO)nc(NC(=O)Nc2ccc(OC(F)(F)F)cc2)n1` [Compound 199, 1-(4-(hydroxyamino)-6-isopropylpyrimidin-2-yl)-3-(4-(trifluoromethoxy)phenyl)urea] gave an IC50 of 500 to 5000 nM. `O=C(Nc1ccc(OC(F)(F)F)cc1)Nc1nc(NO)cc(C2CC2)n1` [Compound 212, 1-(4-cyclopropyl-6-(hydroxyamino)pyrimidin-2-yl)-3-(4-(trifluoromethoxy)phenyl)urea] was tested, and the IC50 was 500 to 5000 nM.
